Results: patent publication US12084420B2, “Indoline compounds for inhibiting KIF18A” (Volastra Therapeutics, Inc., priority 2021, dated 2024)

The molecules below were run against hKIF18A (1-374) (Homo sapiens (Human), UniProt Q8NI77) (assay: Inhibition of KIF18A microtubule-dependent ATPase activity (ADP-Glo)). Details: KIF18A microtubule-dependent ATPase activity, biochemical assay.
Chain of hKIF18A (1-374) (Q8NI77 whole entry, looked up): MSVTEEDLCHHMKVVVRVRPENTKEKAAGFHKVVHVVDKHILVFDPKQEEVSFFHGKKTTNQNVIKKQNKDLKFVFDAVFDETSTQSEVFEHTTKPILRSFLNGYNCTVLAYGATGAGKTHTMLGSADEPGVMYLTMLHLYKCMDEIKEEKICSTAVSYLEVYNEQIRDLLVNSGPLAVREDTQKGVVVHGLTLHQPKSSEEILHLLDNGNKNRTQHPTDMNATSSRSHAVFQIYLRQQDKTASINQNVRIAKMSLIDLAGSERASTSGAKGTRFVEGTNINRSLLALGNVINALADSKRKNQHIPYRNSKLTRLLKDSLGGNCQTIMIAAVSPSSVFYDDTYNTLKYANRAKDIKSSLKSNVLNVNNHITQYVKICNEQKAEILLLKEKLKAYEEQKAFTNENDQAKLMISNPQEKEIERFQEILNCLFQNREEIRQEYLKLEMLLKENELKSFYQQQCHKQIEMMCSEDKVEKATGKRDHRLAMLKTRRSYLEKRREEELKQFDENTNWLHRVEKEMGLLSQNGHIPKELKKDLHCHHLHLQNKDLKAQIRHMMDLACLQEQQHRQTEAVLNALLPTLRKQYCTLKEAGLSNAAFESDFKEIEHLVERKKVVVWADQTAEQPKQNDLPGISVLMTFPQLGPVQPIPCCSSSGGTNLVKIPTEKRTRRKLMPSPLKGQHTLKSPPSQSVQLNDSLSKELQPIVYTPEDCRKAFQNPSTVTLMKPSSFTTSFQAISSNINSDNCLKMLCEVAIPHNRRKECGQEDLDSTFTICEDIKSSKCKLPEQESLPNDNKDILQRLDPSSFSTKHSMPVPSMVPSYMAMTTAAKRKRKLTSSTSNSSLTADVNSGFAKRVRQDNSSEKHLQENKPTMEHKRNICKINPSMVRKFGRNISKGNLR
Chain of hKIF18A (1-374) (Q2XVP4 whole entry partner, looked up): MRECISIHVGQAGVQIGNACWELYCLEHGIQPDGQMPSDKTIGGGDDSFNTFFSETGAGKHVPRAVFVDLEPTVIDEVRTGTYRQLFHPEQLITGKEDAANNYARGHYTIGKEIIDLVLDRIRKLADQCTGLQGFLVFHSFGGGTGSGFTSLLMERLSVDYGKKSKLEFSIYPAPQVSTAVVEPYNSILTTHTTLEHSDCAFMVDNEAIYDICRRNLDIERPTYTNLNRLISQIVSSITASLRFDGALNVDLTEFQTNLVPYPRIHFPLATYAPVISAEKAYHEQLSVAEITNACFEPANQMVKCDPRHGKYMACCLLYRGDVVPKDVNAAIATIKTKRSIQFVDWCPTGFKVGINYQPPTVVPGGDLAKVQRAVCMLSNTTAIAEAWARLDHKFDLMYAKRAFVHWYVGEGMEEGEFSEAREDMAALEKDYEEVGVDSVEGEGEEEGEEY
Chain of hKIF18A (1-374) (P02554 whole entry partner, looked up): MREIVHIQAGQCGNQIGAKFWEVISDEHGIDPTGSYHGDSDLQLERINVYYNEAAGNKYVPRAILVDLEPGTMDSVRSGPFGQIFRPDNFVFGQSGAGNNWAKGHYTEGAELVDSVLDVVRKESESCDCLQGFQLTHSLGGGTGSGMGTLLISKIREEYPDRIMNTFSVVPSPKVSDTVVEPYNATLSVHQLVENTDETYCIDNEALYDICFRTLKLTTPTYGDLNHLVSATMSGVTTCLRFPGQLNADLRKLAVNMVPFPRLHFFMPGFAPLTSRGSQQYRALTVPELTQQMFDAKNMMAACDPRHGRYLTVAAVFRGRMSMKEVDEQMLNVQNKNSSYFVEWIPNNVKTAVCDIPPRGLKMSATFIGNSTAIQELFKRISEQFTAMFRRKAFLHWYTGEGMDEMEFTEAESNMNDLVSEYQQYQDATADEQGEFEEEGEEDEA

IC50 | Compound
1100 nM | CCOC(=O)Nc1ccc2c(c1)C1(CCCCC1)CN2C(=O)c1cccc(S(=O)(=O)N2CCCCC2)c1 [Compound 141, ethyl (1′-(3-(piperidin-1-ylsulfonyl)benzoyl)spiro[cyclohexane-1,3′-indolin]-5′-yl)carbamate]
11 nM | CS(=O)(=O)Nc1ccc2c(c1)C1(CCC3(CC3)CC1)CN2C(=O)c1cccc(S(=O)(=O)NC2CCCCC2)c1 [Compound 180, N-cyclohexyl-3-(5″- (methylsulfonamido)dispiro[cyclopropane-1,1′-cyclohexane-4′,3″-indoline]-1″-carbonyl)benzenesulfonamide]
4.6 nM | O=C(c1cccc(S(=O)(=O)N2CC3(CCC3)C2)c1)N1CC2(CCC3(CC3)CC2)c2cc(NS(=O)(=O)CCO)ccc21 [Compound 228, N-(1″-(3-((2-azaspiro[3.3]heptan-2-yl)sulfonyl)benzoyl)dispiro[cyclopropane-1,1′-cyclohexane-4′,3″-indolin]-5″- yl)-2-hydroxyethane-1-sulfonamide]
33 nM | CC(NS(=O)(=O)c1cccc(C(=O)N2CC3(CCC4(CC4)CC3)c3cc(NS(C)(=O)=O)ccc32)c1)C1CCC1 (stereo not drawn) [Compound 184, N-(1-cyclobutylethyl)-3-(5″- (methylsulfonamido)dispiro[cyclopropane-1,1′-cyclohexane-4′,3″-indoline]-1″-carbonyl)benzenesulfonamide]
19 nM | COc1ccc(C(=O)N2CC3(CCC4(CC4)CC3)c3cc(NS(C)(=O)=O)ccc32)cc1S(=O)(=O)N1CC(F)(F)C1 [Compound 302, N-(1″-(3-((3,3-difluoroazetidin-1-yl)sulfonyl)-4-methoxybenzoyl)dispiro[cyclopropane-1,1′-cyclohexane-4′,3″-indolin]-5″- yl)methanesulfonamide]
35 nM | CP(=O)(CC1CCC1)c1cccc(C(=O)N2CC3(CCC4(CC4)CC3)c3cc(NS(C)(=O)=O)ccc32)c1 (stereo not drawn) [Compound 362]
110 nM | CS(=O)(=O)Nc1ccc2c(c1)C1(CCC3(CC3)CC1)CN2C(=O)c1cccc([S+]([O-])C2CCCC2)c1 (stereo not drawn) [Compound 270, N-(1″-(3-(cyclopentylsulfinyl)benzoyl)dispiro [cyclopropane-1,1′-cyclohexane-4′,3″- indolin]-5″-yl)methanesulfonamide]
200 nM | CC(C)(C)[C@@H](O)c1ccc(C(=O)N2CC3(CCC4(CC4)CC3)c3cc(NS(C)(=O)=O)ccc32)o1 (single isomer, unassigned) [Compound 373a]
100 nM | CC(C)(C)NS(=O)(=O)c1cc(C(=O)N2CC3(CCCCC3)c3cc(NS(C)(=O)=O)ccc32)ccc1F [Compound 96, N-(tert-butyl)-2-fluoro-5-(5′-(methylsulfonamido)spiro[cyclohexane-1,3′-indoline]-1′-carbonyl)benzenesulfonamide]
80 nM | CS(=O)(=O)Nc1ccc2c(c1)C1(CCC3(CC3)CC1)CN2C(=O)c1cccc(S(=O)(=O)NC(CO)C2CC2)c1 (stereo not drawn) [Compound 214, N-(1-cyclopropyl-2-hydroxyethyl)-3-(5″- (methylsulfonamido)dispiro[cyclopropane-1,1′-cyclohexane-4′,3″-indoline]-1″-carbonyl)benzenesulfonamide]
7.2 nM | O=C(c1cccc(S(=O)(=O)NC2CCC2)c1)N1CC2(CCC3(CC3)CC2)c2cc(NS(=O)(=O)CCO)ccc21 [Compound 227, N-cyclobutyl-3-(5″-((2-hydroxyethyl)sulfonamido)dispiro[cyclopropane-1,1′-cyclohexane-4′,3″- indoline]-1″- carbonyl)benzenesulfonamide]
45 nM | CS(=O)(=O)Nc1ccc2c(c1)C1(CCC3(CC3)CC1)CN2C(=O)c1cccc(CN2CCC(F)(F)C2)c1 [Compound 349, N-(1″-(3-((3,3-difluoropyrrolidin-1-yl)methyl)benzoyl)dispiro [cyclopropane-1,1′-cyclohexane-4′,3″-indolin]-5″- yl)methanesulfonamide]
7.1 nM | CS(=O)(=O)Nc1ccc2c(c1)C1(CCC3(CC3)CC1)CN2C(=O)c1ccc(C(O)C2CC(F)(F)C2)o1 (stereo not drawn) [Compound 369, N-(1″-(5-((3,3-difluorocyclobutyl)(hydroxy)methyl)furan-2-carbonyl)dispiro[cyclopropane-1,1′-cyclohexane-4′,3″-indolin]-5″- yl)methanesulfonamide]
4.8 nM | C=C1CC(NS(=O)(=O)c2cccc(C(=O)N3CC4(CCC5(CC5)CC4)c4cc(NS(C)(=O)=O)ccc43)c2)C1 [Compound 190, N-(3-methylenecyclobutyl)-3-(5″- (methylsulfonamido)dispiro[cyclopropane-1,1′-cyclohexane-4′,3″-indoline]-1″-carbonyl)benzenesulfonamide]
24 nM | C[C@H](c1cccc(C(=O)N2CC3(CCC4(CC4)CC3)c3cc(NS(C)(=O)=O)ccc32)c1)N1CCC(F)(F)CC1 (single isomer, unassigned) [Compound 341b]
11 nM | CS(=O)(=O)Nc1ccc2c(c1)C1(CCC3(CC3)CC1)CN2C(=O)c1cccc(C(O)C2CCCC2)n1 (stereo not drawn) [Compound 317, N-(1″-(6-(cyclopentyl(hydroxy)methyl)picolinoyl)dispiro[cyclopropane-1,1′-cyclohexane-4′,3″-indolin]-5″- yl)methanesulfonamide]
77 nM | CC(C)(C)NS(=O)(=O)c1csc(C(=O)N2CC3(CCC4(CC4)CC3)c3cc(NS(C)(=O)=O)ccc32)c1 [Compound 268, N-(tert-butyl)-5-(5″- (methylsulfonamido)dispiro[cyclopropane-1,1′-cyclohexane-4′,3″-indoline]-1″-carbonyl)thiophene-3-sulfonamide]
1100 nM | O=C(c1cccc(S(=O)(=O)N2CCCCC2)c1)N1CC2(CCCCC2)c2cc(O)ccc21 [Compound 166, (5′-hydroxyspiro[cyclohexane-1,3′-indolin]-1′-yl)(3-(piperidin-1-ylsulfonyl)phenyl)methanone]
15 nM | CS(=O)(=O)Nc1ccc2c(c1)C1(CCC3(CC3)CC1)CN2C(=O)c1cccc(S(=O)(=O)N2CC[C@H](F)C2)c1 [(S)-Compound 239, (S)-N-(1″-(3-((3-fluoropyrrolidin-1-yl)sulfonyl)benzoyl)dispiro[cyclopropane-1,1′-cyclohexane-4′,3″-indolin]-5″- yl)methanesulfonamide]
33 nM | CS(=O)(=O)Nc1ccc2c(c1)C1(CCC3(CC3)CC1)CN2C(=O)c1cccc(C(F)(F)C2CCCC2)c1 [Compound 306, N-(1″-(3-(cyclopentyldifluoromethyl)benzoyl)dispiro[cyclopropane-1,1′-cyclohexane-4′,3″-indolin]-5″- yl)methanesulfonamide]
7.5 nM | CS(=O)(=O)Nc1ccc2c(c1)C1(CCC3(CC3)CC1)CN2C(=O)c1cccc(S(=O)(=O)NC2CC23CC3)c1 (stereo not drawn) [Compound 225, 3-(5″-(methylsulfonamido)dispiro [cyclopropane-1,1′-cyclohexane-4′,3″- indoline]-1″-carbonyl)-N-(spiro[2.2]pentan-1-yl)benzenesulfonamide]
120 nM | CS(=O)(=O)Nc1ccc2c(c1)C1(CCC3(CC3)CC1)CN2C(=O)c1cccc(C(=O)C2CCCC2)c1 [Compound 164, N-(1″-(3-(cyclopentanecarbonyl)benzoyl)dispiro[cyclopropane-1,1′-cyclohexane-4′,3″- indolin]-5″-yl)methanesulfonamide]
39 nM | CCC1=CCC2(CC1)CN(C(=O)c1cccc(S(=O)(=O)NC(C)(C)C)c1)c1ccc(NS(C)(=O)=O)cc12 (stereo not drawn) [Compound 31, N-(tert-butyl)-3-(4-ethyl-5′-(methylsulfonamido)spiro[cyclohexane-1,3′-indolin]-3-en-1′-carbonyl)benzenesulfonamide]
28 nM | CS(=O)(=O)Nc1ccc2c(c1)C1(CCC3(CC3)CC1)CN2C(=O)c1cccc(CN2C[C@@H]3[C@H](C2)C3(F)F)c1 [Compound 358, N-(1″-(3-((6,6-difluoro-3-azabicyclo[3.1.0]hexan-3-yl)methyl)benzoyl)dispiro[cyclopropane-1,1′-cyclohexane-4′,3″-indolin]-5″- yl)methanesulfonamide]
850 nM | CC(C)(C)NS(=O)(=O)c1ccc(F)c(C(=O)N2CC3(CCCCC3)c3cc(NS(C)(=O)=O)ccc32)c1 [Compound 97, N-(tert-butyl)-4-fluoro-3-(5′-(methylsulfonamido)spiro[cyclohexane-1,3′-indoline]-1′-carbonyl)benzenesulfonamide]
14 nM | O=C(c1cccc(S(=O)(=O)NC2CC(F)(F)C2)c1)N1CC2(CCC3(CC3)CC2)c2cc(NS(=O)(=O)CCO)ccc21 [Compound 230, N-(3,3-difluorocyclobutyl)-3-(5″-((2-hydroxyethyl)sulfonamido)dispiro [cyclopropane-1,1′-cyclohexane-4′,3″- indoline]-1″- carbonyl)benzenesulfonamide]
6.3 nM | CS(=O)(=O)Nc1ccc2c(c1)C1(CCC3(CC3)CC1)CN2C(=O)c1ccc(S(=O)(=O)N2CC3(CCC3)C2)o1 [Compound 321, N-(1″-(5-((2-azaspiro[3.3]heptan-2-yl)sulfonyl)furan-2-carbonyl)dispiro[cyclopropane-1,1′-cyclohexane-4′,3″-indolin]-5″- yl)methanesulfonamide]
17 nM | CS(=O)(=O)Nc1ccc2c(c1)[C@]1(CC[C@H](C(F)F)CC1)CN2C(=O)c1cccc(S(=O)(=O)NC23CC(C2)C3)c1 [Compound 336b]
9.3 nM | CS(=O)(=O)Nc1ccc2c(c1)C1(CCC3(CC3)CC1)CN2C(=O)c1cccc(S(=O)(=O)CC2CCC2)c1 [Compound 335, N-(1″-(3-((cyclobutylmethyl)sulfonyl)benzoyl)dispiro[cyclopropane-1,1′-cyclohexane-4′,3″-indolin]-5″-yl)methanesulfonamide]
13 nM | CS(=O)(=O)Nc1ccc2c(c1)C1(CCC3(CC3)CC1)CN2C(=O)c1csc(S(=O)(=O)N2CCC(F)(F)CC2)c1 [Compound 281, N-(1″-(5-((4,4-difluoropiperidin-1-yl)sulfonyl)thiophene-3-carbonyl)dispiro[cyclopropane-1,1′-cyclohexane-4′,3″-indolin]-5″- yl)methanesulfonamide]
